The results in this text go back to BindingDB's records for patent US8969325 (Abbvie, 2015).

For this test, the target named is Transient receptor potential cation channel subfamily V member 1 (Homo sapiens, UniProt Q8NER1). The experiment in a line: Activation Assay. The protocol: Expression plasmids encoding the hTRPV1 cDNA were transfected into HEK293 cells using Lipofectamine. Forty-eight hours after transfection, the neomycin-resistant cells were selected with growth medium containing 800 ug/mL Geneticin (Life Technologies, formerly Gibco BRL). Surviving individual colonies were isolated and screened for TRPV1 activity.
Transient receptor potential cation channel subfamily V member 1, sequence (Q8NER1 whole entry): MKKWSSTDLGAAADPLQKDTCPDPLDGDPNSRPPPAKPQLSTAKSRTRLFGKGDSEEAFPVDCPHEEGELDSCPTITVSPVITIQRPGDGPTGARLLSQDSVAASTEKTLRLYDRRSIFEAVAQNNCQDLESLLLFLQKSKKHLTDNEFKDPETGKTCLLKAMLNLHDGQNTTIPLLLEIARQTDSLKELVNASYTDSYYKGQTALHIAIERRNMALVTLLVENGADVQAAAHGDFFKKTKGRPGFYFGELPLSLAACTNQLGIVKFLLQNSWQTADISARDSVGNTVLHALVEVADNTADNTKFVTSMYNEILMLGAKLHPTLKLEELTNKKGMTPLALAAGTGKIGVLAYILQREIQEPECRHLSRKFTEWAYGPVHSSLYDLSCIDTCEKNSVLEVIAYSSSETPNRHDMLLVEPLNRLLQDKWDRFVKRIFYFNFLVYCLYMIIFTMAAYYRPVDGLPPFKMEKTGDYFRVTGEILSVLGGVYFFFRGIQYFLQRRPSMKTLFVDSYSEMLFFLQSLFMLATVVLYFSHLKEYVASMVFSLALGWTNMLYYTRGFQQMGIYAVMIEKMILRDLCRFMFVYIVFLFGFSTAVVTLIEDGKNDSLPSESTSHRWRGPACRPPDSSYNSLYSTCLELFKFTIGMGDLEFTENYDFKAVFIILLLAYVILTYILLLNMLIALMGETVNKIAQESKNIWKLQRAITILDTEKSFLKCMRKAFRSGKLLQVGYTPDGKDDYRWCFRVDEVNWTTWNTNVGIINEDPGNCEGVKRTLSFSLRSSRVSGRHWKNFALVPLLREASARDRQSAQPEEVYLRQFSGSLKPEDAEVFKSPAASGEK

For the molecule `CN1C(=O)NCc2c(NC(=O)N[C@@H]3CC(C)(C(F)F)Oc4cc(Cl)ccc43)cccc21` (stereo partly specified) [US8969325, 136], the IC50 (in general, the concentration needed to halve the response being measured) is 0.021 µM.
